Assay results taken from patent publication US9273088B2, “Ginsenoside derivative compounds and the use thereof in protection against ischemia/reperfusion injury” (Macau University of Science and Technology, priority 2013, dated 2016).

Experiments:
H9c2 cells [1] = test: Hypoxia/reoxygenation (H/R) injury model, MTT cell viability assay; type: cell-based, rat; conditions: for viability of cardiomyocyte cells after H/R (ratio of viable cells relative to normoxia control) / protective effect compared with the positive control drug / order of cardioprotective effects: hypoxia/reoxygenation; for viability of cardiomyocyte cells after H/R (ratio of viable cells relative to normoxia control): mean±SEM; for protective effect compared with the positive control drug: vs diazoxide 50 μM; for order of cardioprotective effects: rank order of the 7 derivative compounds
Description: (§1) Embryonic rat heart derived cell line H9c2 (2-1), shorted in H9c2 cells, was purchased from ATCC (CRL-1446), which is a permanent cell line and derived from embryonic BDIX rat ventricular heart tissue. Dulbecco's Modified Eagle Medium, Fetal Bovine Serum, and Penicillin-Streptomycin-Glutamine, 2.5% Trypsin/EDTA solution, Phosphate-buffered saline from GIBCO® (Invitrogen™) were used.
(§2) H9c2 cells were cultured in DMEM medium supplemented with 10% fetal bovine serum, 1% glutamine, 50 U/ml penicillin and […] streptomycin. The culture atmosphere for H9c2 cells was 95% air with 5% carbon dioxide (CO2) at 37.0° C. The medium was replaced every 2-3 days. A stock of cells was grown in a 100 cm^2 culture dish and split before confluence at a subcultivation ratio of 1:4. Cells used for experiments were seeded at a density of 1.0×10^4 cells/well in a 96-well culture plate, and cells in each well were allowed to grow to 60-80% confluence within 24 h prior to drug treatment.
After treatment with desired concentrations of drug for 3 h, the cells were washed twice with Krebs-Ringer Bicarbonate buffer (KRB; 115 mM NaCl, 4.7 mM KCl, 2.5 mM CaCl2, 1.2 mM KH2PO4, 1.2 mM MgSO4, 24 mM NaHCO3, 10 mM HEPES; pH 7.4). Aliquots of KRB supplemented with 0.01% (w/v) BSA were added to the cells immediately prior to hypoxia. A Billups-Rothenberg modular incubator chamber (Billups-Rothenberg, Inc.; DelMar, Calif.) was used to produce an in vitro Hypoxia/Reoxygenation challenge. In essence, cells were placed in the sealed chamber and the chamber was flushed with 100% nitrogen for 5 min at a flow rate of 25 liter/min. After closing all sealable connectors, the chamber was transferred to an incubator and the cells in the chamber were subjected to a period of hypoxia at 37° C. Reoxygenation was initiated by opening the chamber and then replacing the KRB with fresh DMEM medium. The cells were then cultured in the incubator under an atmosphere of 5% (v/v) CO2 in air at 37° C. for designed periods.
(§3) The cell viability was measured using the MTT colorimetric assay, which was based on the conversion of MTT to formazan crystals by mitochondrial dehydrogenase. Briefly, H9c2 cells were seeded in 96-well plates at 1×10^4 cells/well and incubated at 37° C. for 48 h. The cells were then treated with DMSO (H/R control), diazoxide (50 μM). Compounds A-G (at two concentrations of 12.5 μM or 25 μM) and incubated under hypoxia condition. The cells without any treatment and incubated under normoxia condition were used as normal control. At the end of the treatments, […] MTT (5 mg/ml) was added for 4 h and then […] MTT buffer (10% SDS solution, pH7.4) was added to each well. After overnight incubation and 30 s vibration, the absorbance was read at 490 nm wavelength. Results were expressed as the ratio of the number of viable cells with treatments relative to that of the normoxia control.
Data were expressed as mean±SEM. One-way ANOVA with multiple comparisons using the Dunnett's Multiple Comparison Test was used to analyze differences between groups. All statistical analysis was performed using Prism 5 for Windows version 5.00 (GraphPad software, Inc., La Jolla, Calif. 92037 USA). Differences were considered significant if p<0.05.

H9c2 cells [2] = test: Cytotoxicity study in normoxia condition, MTT cell viability assay; type: cell-based, rat
Description: as §1, §2, §3
The cell line and reagents used, and cell culture methods, cell viability assay and statistical analysis employed were described in Example 2.
The cells were treated with desired concentrations of compounds A-G for 3 h, then the medium thereof was replaced with DMEM medium with 10% fetal bovine serum, 1% glutamine, 50 U/ml penicillin and […] streptomycin. The culture atmosphere for normaxia condition was 95% air with 5% carbon dioxide (CO2) at 37.0° C. The cells were then cultured in the incubator for designed periods. The cells without any treatment and incubated under normoxia condition were used as positive control.
Results were expressed as the ratio of the number of viable cells with treatments relative to that of the positive control.

Molecule	protective effect compared with the positive control drug (H9c2 cells [1]; 12.5 or 25 μM)	order of cardioprotective effects (H9c2 cells [1])	cytotoxicity under normoxia condition (H9c2 cells [2]; equivalent dosages)	further results
CC1=NS(=O)(=O)c2cc(Cl)ccc2N1 [Positive 50, diazoxide, reference compound]	–	–	–	viability of cardiomyocyte cells after H/R (ratio of viable cells relative to normoxia control) (H9c2 cells [1]; 50 μM positive control, p<0.001): 61.69±0.37%
3-O-[β-D-glucopyranosyl(1→2)-β-D-glucopyranosyl]-3β,12β,20(S), 24(S)-tetrahydroxydammar-25-ene and its 24(R) epimer [Compound A]	higher than the positive control drug	G>F>C>A>D>B, E	no significant cytotoxicity	cytotoxicity under normoxia condition (H9c2 cells [2]; 12.5 μM, vs untreated control): no statistically significant cytotoxicity; cytotoxicity under normoxia condition (H9c2 cells [2]; 25 μM, vs untreated control): no statistically significant cytotoxicity
3-O-[β-D-glucopyranosyl(1→2)-β-D-glucopyranosyl]-20(R), 24(S)-epoxydammarane-3β,12β-triol and its 24(R) epimer [Compound E]	–	G>F>C>A>D>B, E	no significant cytotoxicity	–
3-O-[β-D-glucopyranosyl(1→2)-β-D-glucopyranosyl]-3β,12β,20(S),25-tetra-hydroxydammar-23-ene [Compound B]	–	G>F>C>A>D>B, E	–	–
3-O-[β-D-glucopyranosyl(1→2)-β-D-glucopyranosyl]-3β,12β,20(R), 25-tetrahydroxydammar-23-ene [Compound D]	higher than the positive control drug	G>F>C>A>D>B, E	no significant cytotoxicity	viability of cardiomyocyte cells after H/R (ratio of viable cells relative to normoxia control) (H9c2 cells [1]; 25 μM, 3 h pretreatment): 61.06±0.30%
3-O-[β-D-glucopyranosyl(1→2)-β-D-glucopyranosyl]-3β,12β,20(R), 24(S)-tetrahydroxydammar-25-ene and its 24(R) epimer [Compound C]	higher than the positive control drug	G>F>C>A>D>B, E	no significant cytotoxicity	–
CC(C)=CCC[C@](C)(O)[C@H]1CC[C@]2(C)[C@@H]1[C@H](O)C[C@@H]1[C@@]3(C)CC[C@H](O[C@@H]4O[C@H](CO)[C@@H](O)[C@H](O)[C@H]4O[C@@H]4O[C@H](CO)[C@@H](O)[C@H](O)[C@H]4O)C(C)(C)[C@@H]3CC[C@]12C [Rg3, reference compound]	–	–	–	protective effect against I/R injury induced by hypoxia/reoxygenation, compared with H/R control group (H9c2 cells [1]; 12.5 or 25 μM): have protective effect
